This data set concerns CCRIS mutagenicity, Ames/micronucleus/aberration tests. In words: CCRIS mutagenicity studies. From the text: The CCRIS database contains chemical records with carcinogenicity, mutagenicity, tumor promotion, and tumor inhibition test results. It was developed by the National Cancer Institute (NCI). Data are derived from studies cited in primary journals, current awareness tools, NCI reports, and other sources. Test results have been reviewed by experts in carcinogenesis and mutagenesis.
CCRIS provides historical information from the years 1985 - 2011. It is no longer updated.
This is an archive assay for CCRIS mutagenicity studies.

[1] abbreviates: Test System: AMES SALMONELLA TYPHIMURIUM, Strain/Indicator: TA97A, Metabolic Activation: NONE, Method: STANDARD PLATE.
The mark [2] stands for this setting: Test System: AMES SALMONELLA TYPHIMURIUM, Strain/Indicator: TA97A, Metabolic Activation: RAT, LIVER, S-9, AROCLOR 1254, Method: STANDARD PLATE.
The mark [3] stands for this setting: Test System: AMES SALMONELLA TYPHIMURIUM, Strain/Indicator: TA98, Metabolic Activation: NONE, Method: STANDARD PLATE.
Where [4] appears, read: Test System: AMES SALMONELLA TYPHIMURIUM, Strain/Indicator: TA98, Metabolic Activation: RAT, LIVER, S-9, AROCLOR 1254, Method: STANDARD PLATE.
[5] abbreviates: Test System: AMES SALMONELLA TYPHIMURIUM, Strain/Indicator: TA100, Metabolic Activation: NONE, Method: STANDARD PLATE.
[6] abbreviates: Test System: AMES SALMONELLA TYPHIMURIUM, Strain/Indicator: TA100, Metabolic Activation: RAT, LIVER, S-9, AROCLOR 1254, Method: STANDARD PLATE.
[7] abbreviates: Test System: AMES SALMONELLA TYPHIMURIUM, Strain/Indicator: TA102, Metabolic Activation: NONE, Method: STANDARD PLATE.
Where [8] appears, read: Test System: AMES SALMONELLA TYPHIMURIUM, Strain/Indicator: TA102, Metabolic Activation: RAT, LIVER, S-9, AROCLOR 1254, Method: STANDARD PLATE.
[9] abbreviates: Test System: AMES SALMONELLA TYPHIMURIUM, Strain/Indicator: TA98, Metabolic Activation: NONE, Method: PREINCUBATION
Setting [10] is: Test System: AMES SALMONELLA TYPHIMURIUM, Strain/Indicator: TA100, Metabolic Activation: NONE, Method: PREINCUBATION
[11] abbreviates: Test System: AMES SALMONELLA TYPHIMURIUM, Strain/Indicator: TA98, Metabolic Activation: RAT, LIVER, S-9, AROCLOR 1254, Method: PREINCUBATION
The mark [12] stands for this setting: Test System: AMES SALMONELLA TYPHIMURIUM, Strain/Indicator: TA100, Metabolic Activation: RAT, LIVER, S-9, AROCLOR 1254, Method: PREINCUBATION
Where [13] appears, read: Test System: AMES SALMONELLA TYPHIMURIUM, Strain/Indicator: TA102, Metabolic Activation: RAT, LIVER, S-9, AROCLOR 1254, Method: PREINCUBATION

The values below come from PubChem BioAssay AID1259407 (Chemical Carcinogenesis Research Information System (CCRIS), 2018).

The structures appear in SMILES notation. Activity calls are given as the source filed them. The rule behind the calls is not given here.

With `CCOCC(=O)O`, the mutagenic call runs as follows: under setting [1], “inactive; negative”; under setting [2], “inactive; negative”; under setting [3], “inactive; negative”; under setting [4], “inactive; negative”; under setting [5], “inactive; negative”; under setting [6], “inactive; negative”. The mutagenic call reads like this: under setting [7], “inactive; negative”; under setting [8], “inactive; negative”.

For `CC1CCC(NC(=O)N(CCCl)N=O)CC1` (configuration not stated), the mutagenic call was “active; positive” (Test System: AMES SALMONELLA TYPHIMURIUM, Strain/Indicator: G46, Metabolic Activation: NONE); “active; positive” under setting [5]; “active; positive” under setting [6]; “active; positive” (Test System: AMES SALMONELLA TYPHIMURIUM, Strain/Indicator: TA1535, Metabolic Activation: NONE).

With `NNc1nncc2ncccc12`, the mutagenic call was “active; positive” under setting [9]; “active; positive” (Test System: AMES SALMONELLA TYPHIMURIUM, Strain/Indicator: TA98, Metabolic Activation: RAT, LIVER, S-9, PCB, Method: PREINCUBATION); “active; positive” under setting [10]; “active; positive” (Test System: AMES SALMONELLA TYPHIMURIUM, Strain/Indicator: TA100, Metabolic Activation: RAT, LIVER, S-9, PCB, Method: PREINCUBATION).

For `Cc1ccccc1-c1ccc(N)cc1`, the mutagenic call under setting [3] was “inactive; negative”, the mutagenic call under setting [4] was “active; positive”, the mutagenic call under setting [5] was “inactive; negative” and the mutagenic call under setting [6] was “active; positive”.

As for `CCn1c2ccccc2c2cc(N)ccc21`, the mutagenic call (Test System: AMES SALMONELLA TYPHIMURIUM, Strain/Indicator: TA98, Metabolic Activation: HAMSTER, LIVER, S-9, AROCLOR 1254, Method: PREINCUBATION) is “active; positive”; the mutagenic call under setting [9] is “inactive; negative”; the mutagenic call under setting [11] is “active; positive”; the mutagenic call (Test System: AMES SALMONELLA TYPHIMURIUM, Strain/Indicator: TA100, Metabolic Activation: HAMSTER, LIVER, S-9, AROCLOR 1254, Method: PREINCUBATION) was “active; positive”; the mutagenic call under setting [10] is “inactive; negative”; the mutagenic call under setting [12] was “active; positive”. In addition, the mutagenic call is, setting by setting: (Test System: AMES SALMONELLA TYPHIMURIUM, Strain/Indicator: TA1535, Metabolic Activation: HAMSTER, LIVER, S-9, AROCLOR 1254, Method: PREINCUBATION) “inactive; negative”; (Test System: AMES SALMONELLA TYPHIMURIUM, Strain/Indicator: TA1535, Metabolic Activation: NONE, Method: PREINCUBATION) “inactive; negative”; (Test System: AMES SALMONELLA TYPHIMURIUM, Strain/Indicator: TA1535, Metabolic Activation: RAT, LIVER, S-9, AROCLOR 1254, Method: PREINCUBATION) “inactive; negative”; (Test System: AMES SALMONELLA TYPHIMURIUM, Strain/Indicator: TA1537, Metabolic Activation: HAMSTER, LIVER, S-9, AROCLOR 1254, Method: PREINCUBATION) “active; positive”; (Test System: AMES SALMONELLA TYPHIMURIUM, Strain/Indicator: TA1537, Metabolic Activation: NONE, Method: PREINCUBATION) “inactive; negative”; (Test System: AMES SALMONELLA TYPHIMURIUM, Strain/Indicator: TA1537, Metabolic Activation: RAT, LIVER, S-9, AROCLOR 1254, Method: PREINCUBATION) “active; positive”.

In the case of `Cc1cc(Cl)ccc1OCC(=O)O`, the mutagenic call was “inactive; negative” (Test System: AMES SALMONELLA TYPHIMURIUM, Strain/Indicator: TA97, Metabolic Activation: NONE, Method: STANDARD PLATE); “inactive; negative” (Test System: AMES SALMONELLA TYPHIMURIUM, Strain/Indicator: TA97, Metabolic Activation: RAT, LIVER, S-9, AROCLOR 1254, Method: STANDARD PLATE); “inactive; negative” under setting [1]; “inactive; negative” under setting [2]; “inactive; negative” under setting [3]; “inactive; negative” under setting [4]. Further, the mutagenic call is “inactive; negative” under setting [5]; “inactive; negative” under setting [6]; “inactive; negative” under setting [7]; “inactive; negative” under setting [8]; “inactive; negative” (Test System: AMES SALMONELLA TYPHIMURIUM, Strain/Indicator: TA1535, Metabolic Activation: NONE, Method: STANDARD PLATE); “inactive; negative” (Test System: AMES SALMONELLA TYPHIMURIUM, Strain/Indicator: TA1535, Metabolic Activation: RAT, LIVER, S-9, AROCLOR 1254, Method: STANDARD PLATE). In addition, the mutagenic call by setting is: (Test System: AMES SALMONELLA TYPHIMURIUM, Strain/Indicator: TA1537, Metabolic Activation: NONE, Method: STANDARD PLATE) “inactive; negative”; (Test System: AMES SALMONELLA TYPHIMURIUM, Strain/Indicator: TA1537, Metabolic Activation: RAT, LIVER, S-9, AROCLOR 1254, Method: STANDARD PLATE) “inactive; negative”; (Test System: AMES SALMONELLA TYPHIMURIUM, Strain/Indicator: TA1538, Metabolic Activation: NONE, Method: STANDARD PLATE) “inactive; negative”; (Test System: AMES SALMONELLA TYPHIMURIUM, Strain/Indicator: TA1538, Metabolic Activation: RAT, LIVER, S-9, AROCLOR 1254, Method: STANDARD PLATE) “inactive; negative”.

For `CC1=C(O)C(=O)CC1`, the mutagenic call is, setting by setting: under setting [9], “inactive; negative”; under setting [11], “inactive; negative”; under setting [10], “inactive; negative”; under setting [12], “inactive; negative”; (Test System: AMES SALMONELLA TYPHIMURIUM, Strain/Indicator: TA102, Metabolic Activation: NONE, Method: PREINCUBATION) “inactive; negative”; under setting [13], “inactive; negative”.

Consider `O=C(O)c1cn(C2CC2)c2c(Cl)c(N3C[C@@H]4CCCN[C@@H]4C3)c(F)cc2c1=O`, for which the mutagenic call runs as follows: (Test System: CHINESE HAMSTER V-79, Strain/Indicator: V-79 (HGPRT)/6-THIOGUANINE, Metabolic Activation: NONE, Method: STANDARD PLATE) “active; positive”; (Test System: CHINESE HAMSTER, Strain/Indicator: V-79(HPRT)/6-THIOGUANINE, Metabolic Activation: NONE, Method: SUSPENSION/PLATE) “active; positive”.

For the compound `O=S(Cl)Cl`, the mutagenic call was “active; positive” (Test System: AMES SALMONELLA TYPHIMURIUM, Strain/Indicator: TA100, Metabolic Activation: HAMSTER, LIVER, S-9, AROCLOR 1254 (2.5-20%), Method: PREINCUBATION); “active; positive” (Test System: AMES SALMONELLA TYPHIMURIUM, Strain/Indicator: TA102, Metabolic Activation: HAMSTER, LIVER, S-9, AROCLOR 1254, Method: PREINCUBATION); “active; positive” under setting [13]; “active; equivocal (previous evaluation positive)” (Test System: Mouse lymphoma, Strain/Indicator: L5178Y (tk+/tk-), Metabolic Activation: None, Method: Suspension/plate); “inactive; inconclusive (previous evaluation negative)” (Test System: Mouse lymphoma, Strain/Indicator: L5178Y (tk+/tk-), Metabolic Activation: Rat, Liver, S-9, Aroclor 1254, Method: Suspension/plate).

Take `C[C@]12CCC=C(C=O)[C@@]1(C=O)C2`: the mutagenic call is, setting by setting: under setting [3], “active; positive”; under setting [5], “active; positive”.

On to `CCN(CC)C(=S)SSC[C@H](NC(=O)CC[C@H](N)C(=O)O)C(=O)NCC(=O)O`, for which the mutagenic call was “inactive; negative” under setting [9], “inactive; negative” under setting [11], “inactive; negative” under setting [10] and “inactive; negative” under setting [12].
